Results reported in article PMC7316778 (Nature Communications, 2020).
Where “and” joins values, the source holds several entries; their conditions need not be identical. Equal values may be shown once. Read-outs that look alike come from different tables or passages of the source.

How the values were obtained:
Assay in all cases: SelectScreen kinase assay
[1] = target: CDK5 (Inactive) (Homo sapiens, UniProt Q00535)
Procedure: (§1) Selectivity profiling assays were performed by the Invitrogen SelectScreen™ Services. […] The concentration of ATP was selected to be equal to the KM, unless indicated otherwise.

[2] = target: AXL (Homo sapiens, UniProt P30530); settings: for Inhibition at 1 µM (%): AXL, ZLYTE, ATP Km app
Procedure: as §1

[3] = target: T1, TTK (Homo sapiens, UniProt P33981)
T1 sequence (P33981 1-857): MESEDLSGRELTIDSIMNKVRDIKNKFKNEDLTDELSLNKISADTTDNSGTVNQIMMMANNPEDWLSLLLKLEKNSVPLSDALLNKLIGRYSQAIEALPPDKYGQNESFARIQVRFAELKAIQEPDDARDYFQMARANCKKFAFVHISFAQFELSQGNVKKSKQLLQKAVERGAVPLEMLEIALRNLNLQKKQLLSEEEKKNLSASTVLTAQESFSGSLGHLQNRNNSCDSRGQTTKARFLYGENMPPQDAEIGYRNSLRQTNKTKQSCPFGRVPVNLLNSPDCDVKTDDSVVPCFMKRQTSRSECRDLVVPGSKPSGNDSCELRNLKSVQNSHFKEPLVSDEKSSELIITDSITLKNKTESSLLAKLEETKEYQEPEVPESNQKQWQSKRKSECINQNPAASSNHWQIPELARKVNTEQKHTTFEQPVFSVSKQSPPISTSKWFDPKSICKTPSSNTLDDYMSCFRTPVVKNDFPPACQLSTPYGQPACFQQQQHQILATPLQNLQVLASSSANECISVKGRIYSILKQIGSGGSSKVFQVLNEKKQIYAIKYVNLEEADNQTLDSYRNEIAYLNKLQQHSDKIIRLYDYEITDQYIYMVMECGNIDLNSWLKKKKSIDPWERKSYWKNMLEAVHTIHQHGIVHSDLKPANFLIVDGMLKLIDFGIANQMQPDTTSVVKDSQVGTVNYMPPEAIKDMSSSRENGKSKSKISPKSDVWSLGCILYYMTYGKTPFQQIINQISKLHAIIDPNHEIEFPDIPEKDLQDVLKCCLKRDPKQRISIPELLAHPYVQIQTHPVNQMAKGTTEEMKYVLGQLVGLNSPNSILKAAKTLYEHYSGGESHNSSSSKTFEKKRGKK
Procedure: as §1

[4] = target: MAPK1 (ERK2) (Homo sapiens, UniProt P28482)
Procedure: as §1

[5] = target: EIF2AK2 (PKR) (Homo sapiens, UniProt P19525)
Procedure: as §1

[6] = target: MYLK (MLCK) (Homo sapiens, UniProt Q15746)
Procedure: as §1

[7] = target: MAPKAPK2 (Homo sapiens, UniProt P49137)
Procedure: as §1

[8] = target: LCK (Homo sapiens, UniProt P06239)
Procedure: as §1

[9] = target: CSNK1A1L (Homo sapiens, UniProt Q8N752)
Procedure: as §1

[10] = target: VRK2 (Homo sapiens, UniProt Q86Y07)
Procedure: as §1

[11] = target: NEK7 (Homo sapiens, UniProt Q8TDX7)
Procedure: as §1

[12] = target: CDK6/cyclin D1 (Homo sapiens, UniProt Q00534); settings: 1 h, 1 μM WEL028, 1 h preincubation
Procedure: as §1

[13] = target: WEE1 (Homo sapiens, UniProt P30291)
Procedure: as §1

[14] = target: T2, ADRBK2 (GRK3) (Homo sapiens, UniProt P35626)
T2 sequence (P35626 1-688): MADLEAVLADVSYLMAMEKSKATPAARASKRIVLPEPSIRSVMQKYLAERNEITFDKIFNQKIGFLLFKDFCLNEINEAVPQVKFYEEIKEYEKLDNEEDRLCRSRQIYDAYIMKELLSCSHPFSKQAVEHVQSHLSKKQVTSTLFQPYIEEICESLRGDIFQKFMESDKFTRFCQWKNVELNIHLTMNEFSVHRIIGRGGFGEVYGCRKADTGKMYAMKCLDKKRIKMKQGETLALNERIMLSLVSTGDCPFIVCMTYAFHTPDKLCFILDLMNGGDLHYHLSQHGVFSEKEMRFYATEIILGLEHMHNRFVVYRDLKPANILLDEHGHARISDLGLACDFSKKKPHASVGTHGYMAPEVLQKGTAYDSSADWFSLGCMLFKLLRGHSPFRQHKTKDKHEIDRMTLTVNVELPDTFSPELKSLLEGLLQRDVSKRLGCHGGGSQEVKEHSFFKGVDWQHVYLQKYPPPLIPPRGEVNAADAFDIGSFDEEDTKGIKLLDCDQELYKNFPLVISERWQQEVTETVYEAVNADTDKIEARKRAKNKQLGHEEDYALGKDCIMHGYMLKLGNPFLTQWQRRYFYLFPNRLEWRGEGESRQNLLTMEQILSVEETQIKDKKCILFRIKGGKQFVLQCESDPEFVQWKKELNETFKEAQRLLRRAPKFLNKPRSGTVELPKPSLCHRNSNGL
Procedure: as §1

[15] = target: NTRK3 (TRKC) (Homo sapiens, UniProt Q16288)
Procedure: as §1

[16] = target: SRPK2 (Homo sapiens, UniProt P78362); settings: 1 h, 1 μM WEL028, 1 h preincubation
Procedure: as §1

[17] = 1 h, 1 μM WEL028, 1 h preincubation
[18] = 1 µM, LanthaScreen Binding, listed as WEL028, 1 µM
[19] = read-out: Inhibition at 1 µM (%), 1 µM, LanthaScreen Binding
[20] = read-out: Inhibition at 1 µM (%)

Sequence of NTRK3 (TRKC) (Q16288 32-839): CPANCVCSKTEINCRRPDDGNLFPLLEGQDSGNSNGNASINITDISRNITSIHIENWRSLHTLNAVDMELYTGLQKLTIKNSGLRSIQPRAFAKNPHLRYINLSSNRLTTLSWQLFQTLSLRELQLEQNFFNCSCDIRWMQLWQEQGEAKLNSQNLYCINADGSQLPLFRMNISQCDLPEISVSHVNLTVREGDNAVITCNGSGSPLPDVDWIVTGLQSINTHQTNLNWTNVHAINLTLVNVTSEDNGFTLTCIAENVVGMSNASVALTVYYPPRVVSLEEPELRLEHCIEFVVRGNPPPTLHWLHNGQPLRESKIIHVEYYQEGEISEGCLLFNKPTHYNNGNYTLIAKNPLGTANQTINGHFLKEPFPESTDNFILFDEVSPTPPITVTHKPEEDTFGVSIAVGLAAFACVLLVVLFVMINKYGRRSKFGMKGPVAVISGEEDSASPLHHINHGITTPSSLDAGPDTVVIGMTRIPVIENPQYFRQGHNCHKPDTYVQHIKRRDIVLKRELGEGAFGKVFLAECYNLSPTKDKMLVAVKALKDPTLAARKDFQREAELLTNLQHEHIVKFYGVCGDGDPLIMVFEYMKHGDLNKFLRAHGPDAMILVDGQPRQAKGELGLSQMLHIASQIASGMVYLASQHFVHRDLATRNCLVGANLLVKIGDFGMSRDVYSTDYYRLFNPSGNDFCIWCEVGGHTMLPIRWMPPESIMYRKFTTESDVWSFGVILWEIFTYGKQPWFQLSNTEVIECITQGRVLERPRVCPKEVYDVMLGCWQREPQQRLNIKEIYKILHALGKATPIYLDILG
Sequence of VRK2 (Q86Y07 whole entry): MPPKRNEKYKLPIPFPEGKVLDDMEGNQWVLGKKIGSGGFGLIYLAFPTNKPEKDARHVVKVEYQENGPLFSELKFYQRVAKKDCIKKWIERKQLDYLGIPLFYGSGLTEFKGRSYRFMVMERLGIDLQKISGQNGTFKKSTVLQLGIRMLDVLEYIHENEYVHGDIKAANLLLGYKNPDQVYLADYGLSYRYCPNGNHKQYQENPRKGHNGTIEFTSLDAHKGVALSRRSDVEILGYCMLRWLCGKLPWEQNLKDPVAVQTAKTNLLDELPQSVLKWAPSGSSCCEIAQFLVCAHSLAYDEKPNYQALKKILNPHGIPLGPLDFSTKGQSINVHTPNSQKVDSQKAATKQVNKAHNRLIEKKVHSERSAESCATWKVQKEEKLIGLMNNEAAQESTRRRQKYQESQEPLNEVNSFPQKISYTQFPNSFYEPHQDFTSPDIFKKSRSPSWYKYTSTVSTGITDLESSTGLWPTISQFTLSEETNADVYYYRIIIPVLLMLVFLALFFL
Sequence of EIF2AK2 (PKR) (P19525 whole entry): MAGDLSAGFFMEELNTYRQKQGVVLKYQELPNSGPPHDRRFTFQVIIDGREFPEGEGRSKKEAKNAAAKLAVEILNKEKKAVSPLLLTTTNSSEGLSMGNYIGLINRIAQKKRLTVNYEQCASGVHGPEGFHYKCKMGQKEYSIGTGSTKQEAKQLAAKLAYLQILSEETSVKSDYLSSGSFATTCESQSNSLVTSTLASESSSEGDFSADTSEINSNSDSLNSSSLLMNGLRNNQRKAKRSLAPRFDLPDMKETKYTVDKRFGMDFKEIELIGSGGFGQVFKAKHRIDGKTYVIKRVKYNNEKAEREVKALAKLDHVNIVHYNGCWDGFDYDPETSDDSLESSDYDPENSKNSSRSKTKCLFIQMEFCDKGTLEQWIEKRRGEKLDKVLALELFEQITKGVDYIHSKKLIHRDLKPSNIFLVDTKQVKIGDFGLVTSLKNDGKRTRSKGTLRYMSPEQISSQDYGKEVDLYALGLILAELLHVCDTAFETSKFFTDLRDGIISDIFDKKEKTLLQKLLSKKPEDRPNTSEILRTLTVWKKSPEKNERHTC
Sequence of AXL (P30530 26-894): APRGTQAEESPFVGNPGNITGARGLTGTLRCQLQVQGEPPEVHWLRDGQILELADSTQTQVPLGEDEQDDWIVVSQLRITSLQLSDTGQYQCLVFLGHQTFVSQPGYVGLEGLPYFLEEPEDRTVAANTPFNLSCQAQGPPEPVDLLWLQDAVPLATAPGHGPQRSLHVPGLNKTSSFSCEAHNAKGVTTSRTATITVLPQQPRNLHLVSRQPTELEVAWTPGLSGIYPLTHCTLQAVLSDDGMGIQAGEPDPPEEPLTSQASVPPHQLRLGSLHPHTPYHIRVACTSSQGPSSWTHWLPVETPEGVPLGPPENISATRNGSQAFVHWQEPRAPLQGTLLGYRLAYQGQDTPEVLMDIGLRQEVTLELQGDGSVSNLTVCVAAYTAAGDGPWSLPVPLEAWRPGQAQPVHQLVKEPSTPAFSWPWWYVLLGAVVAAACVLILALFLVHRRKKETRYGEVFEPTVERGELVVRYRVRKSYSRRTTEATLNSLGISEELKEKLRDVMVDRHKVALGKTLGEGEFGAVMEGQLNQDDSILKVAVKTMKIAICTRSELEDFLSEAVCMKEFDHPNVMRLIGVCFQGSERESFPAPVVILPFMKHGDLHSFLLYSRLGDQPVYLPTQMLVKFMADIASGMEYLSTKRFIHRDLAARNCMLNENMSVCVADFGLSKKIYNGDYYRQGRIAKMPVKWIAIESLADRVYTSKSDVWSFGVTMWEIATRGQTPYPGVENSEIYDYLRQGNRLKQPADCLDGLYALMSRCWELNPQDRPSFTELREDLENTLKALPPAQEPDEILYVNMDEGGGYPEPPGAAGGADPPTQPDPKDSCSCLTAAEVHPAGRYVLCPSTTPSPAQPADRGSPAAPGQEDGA
Sequence of CDK5 (Inactive) (Q00535 whole entry): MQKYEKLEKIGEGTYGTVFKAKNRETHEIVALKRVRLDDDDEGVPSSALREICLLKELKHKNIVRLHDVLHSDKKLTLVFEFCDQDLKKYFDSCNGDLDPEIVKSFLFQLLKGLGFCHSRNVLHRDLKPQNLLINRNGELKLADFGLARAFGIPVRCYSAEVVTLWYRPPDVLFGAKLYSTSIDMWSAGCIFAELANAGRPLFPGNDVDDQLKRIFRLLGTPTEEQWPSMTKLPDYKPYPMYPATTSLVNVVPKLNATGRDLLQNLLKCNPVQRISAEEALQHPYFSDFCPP
Sequence of MAPKAPK2 (P49137 whole entry): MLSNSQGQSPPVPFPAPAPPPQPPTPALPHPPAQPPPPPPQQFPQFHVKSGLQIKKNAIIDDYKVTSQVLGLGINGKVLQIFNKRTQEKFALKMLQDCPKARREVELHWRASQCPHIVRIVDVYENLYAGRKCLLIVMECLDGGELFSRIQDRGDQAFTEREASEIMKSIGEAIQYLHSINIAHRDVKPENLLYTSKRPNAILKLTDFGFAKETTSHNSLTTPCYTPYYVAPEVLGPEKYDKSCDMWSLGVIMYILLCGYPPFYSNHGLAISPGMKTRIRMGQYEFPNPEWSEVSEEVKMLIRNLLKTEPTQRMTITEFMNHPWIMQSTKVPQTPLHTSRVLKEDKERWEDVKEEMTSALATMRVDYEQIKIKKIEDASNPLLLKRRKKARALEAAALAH
Sequence of LCK (P06239 whole entry): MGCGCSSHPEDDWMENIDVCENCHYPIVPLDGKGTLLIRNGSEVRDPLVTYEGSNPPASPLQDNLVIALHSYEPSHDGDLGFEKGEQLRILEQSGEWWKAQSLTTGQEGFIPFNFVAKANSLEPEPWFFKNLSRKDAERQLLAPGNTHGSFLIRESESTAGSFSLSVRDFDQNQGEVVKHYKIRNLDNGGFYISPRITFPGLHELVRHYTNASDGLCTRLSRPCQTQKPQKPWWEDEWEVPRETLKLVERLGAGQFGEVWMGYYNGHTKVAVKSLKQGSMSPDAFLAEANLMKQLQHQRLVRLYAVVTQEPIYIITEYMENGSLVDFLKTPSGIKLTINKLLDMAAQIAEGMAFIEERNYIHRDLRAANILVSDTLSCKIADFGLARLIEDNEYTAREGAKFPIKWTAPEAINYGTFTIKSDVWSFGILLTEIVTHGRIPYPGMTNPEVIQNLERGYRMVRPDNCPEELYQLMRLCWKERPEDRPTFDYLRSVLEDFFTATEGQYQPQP
Sequence of NEK7 (Q8TDX7 whole entry): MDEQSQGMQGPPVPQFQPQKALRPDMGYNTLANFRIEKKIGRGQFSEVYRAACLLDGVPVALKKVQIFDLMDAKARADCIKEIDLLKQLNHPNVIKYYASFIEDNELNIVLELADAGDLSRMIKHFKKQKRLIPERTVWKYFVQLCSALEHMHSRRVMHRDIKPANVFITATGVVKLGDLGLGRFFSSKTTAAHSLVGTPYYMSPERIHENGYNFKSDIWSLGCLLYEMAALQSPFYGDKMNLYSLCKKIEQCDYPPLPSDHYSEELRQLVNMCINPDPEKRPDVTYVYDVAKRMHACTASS
Sequence of WEE1 (P30291 whole entry): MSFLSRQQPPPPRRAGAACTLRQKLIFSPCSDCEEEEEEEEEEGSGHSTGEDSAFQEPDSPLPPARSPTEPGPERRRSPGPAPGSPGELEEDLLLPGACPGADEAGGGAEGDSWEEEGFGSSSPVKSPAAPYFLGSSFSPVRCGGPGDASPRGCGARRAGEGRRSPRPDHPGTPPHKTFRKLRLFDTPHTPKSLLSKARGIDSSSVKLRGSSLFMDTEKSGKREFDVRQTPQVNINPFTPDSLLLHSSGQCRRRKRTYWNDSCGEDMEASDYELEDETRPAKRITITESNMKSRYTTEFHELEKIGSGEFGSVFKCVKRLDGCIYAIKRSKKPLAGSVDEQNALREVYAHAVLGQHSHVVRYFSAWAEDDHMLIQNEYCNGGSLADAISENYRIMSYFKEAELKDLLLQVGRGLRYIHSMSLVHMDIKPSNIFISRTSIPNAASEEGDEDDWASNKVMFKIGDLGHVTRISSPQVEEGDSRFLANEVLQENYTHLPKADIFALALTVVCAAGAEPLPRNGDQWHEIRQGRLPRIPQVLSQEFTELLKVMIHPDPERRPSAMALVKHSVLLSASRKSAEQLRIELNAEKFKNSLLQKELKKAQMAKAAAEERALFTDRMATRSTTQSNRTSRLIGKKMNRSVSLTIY

For `C#CCOc1ccc(Nc2ncc(Cl)c(Nc3ccccc3NC(=O)C=C)n2)c(OC)c1` [Compound 6], the inhibition at 1 µM [1, 17] was 3%, the “Inhibition at 1 µM (%)” value ([1]; CDK5 (Inactive), 1 µM, LanthaScreen Binding, listed as WEL028, 1 µM) was 2% and the inhibition at 1 µM ([1]; read-out: Inhibition at 1 µM (%), CDK5 (Inactive), 1 µM, LanthaScreen Binding) was 3%. For the same compound, the inhibition at 1 µM [2, 17] was -2%, the “Inhibition at 1 µM (%)” value [2] was 3% and the “Inhibition at 1 µM (%)” value ([2]; listed as WEL028, 1 µM) was -6%. For the same compound, the IC50 [3] was 631 nM, the “Inhibition at 1 µM (%)” value [3, 18] was 76% and the inhibition at 1 µM [3, 17] was 77%. The Apparent fold selectivity ([3]; IC50 on that kinase divided by IC50 on FES^S700C) was 152 fold, the inhibition at 1 µM [3, 19] was 77% and the inhibition at 1 µM ([4]; 1 h) was 26%. For the same compound, the inhibition at 1 µM [4, 20] was 26%, the “Inhibition (%)” value ([5]; 1 μM WEL028, 1 h preincubation) was 4% and the “Inhibition at 1 µM (%)” value ([5]; EIF2AK2 (PKR), 1 µM, LanthaScreen Binding, listed as WEL028, 1 µM) was 6% and 1%. For the same compound, the inhibition at 1 µM ([6]; 1 h) was 15%, the inhibition at 1 µM [6, 20] was 15% and the inhibition at 1 µM [7, 17] was 7%. For the same compound, the “Inhibition at 1 µM (%)” value ([7]; MAPKAPK2, 1 µM, ZLYTE, ATP Km app, listed as WEL028, 1 µM) was 5%, the inhibition at 1 µM ([7]; read-out: Inhibition at 1 µM (%), MAPKAPK2, 1 µM, ZLYTE, ATP Km app) was 8% and the inhibition at 1 µM [8, 17] was 5%. The “Inhibition at 1 µM (%)” value ([8]; LCK, 1 µM, ZLYTE, ATP Km app, listed as WEL028, 1 µM) was 6%, the inhibition at 1 µM ([8]; read-out: Inhibition at 1 µM (%), LCK, 1 µM, ZLYTE, ATP Km app) was 4% and the inhibition at 1 µM ([9]; 1 h) was 5%. The inhibition at 1 µM [9, 20] was 5%, the “Inhibition at 1 µM (%)” value [10, 18] was 19% and the inhibition at 1 µM [10, 17] was 16%. For the same compound, the inhibition at 1 µM [10, 19] was 14%, the inhibition at 1 µM [11, 17] was -3% and the “Inhibition at 1 µM (%)” value ([11]; NEK7, 1 µM, ZLYTE, ATP Km app, listed as WEL028, 1 µM) was -2%. The inhibition at 1 µM [12] was -6%, the “Inhibition at 1 µM (%)” value ([13]; 1 µM, LanthaScreen Binding) was -14% and the inhibition at 1 µM [13, 17] was -5%. For the same compound, the inhibition at 1 µM [14, 17] was 7%, the “Inhibition at 1 µM (%)” value ([14]; ADRBK2 (GRK3), 1 µM, ZLYTE, ATP Km app, listed as WEL028, 1 µM) was 8% and the inhibition at 1 µM ([14]; read-out: Inhibition at 1 µM (%), ADRBK2 (GRK3), 1 µM, ZLYTE, ATP Km app) was 5%. For the same compound, the inhibition at 1 µM [15, 17] was 4%, the “Inhibition at 1 µM (%)” value ([15]; NTRK3 (TRKC), 1 µM, ZLYTE, ATP Km app, listed as WEL028, 1 µM) was 0% and 8% and the inhibition at 1 µM [16] was -1%.
